Laboratory results taken from ChEMBL document CHEMBL1139571, “Synthesis and characterization of azole isoflavone inhibitors of aromatase” (Bioorg Med Chem Lett, 2005).
pIC50: −log10 of the molar value.

Molecular target: T1, Aromatase (Homo sapiens, UniProt P11511)
T1 sequence (P11511 whole entry): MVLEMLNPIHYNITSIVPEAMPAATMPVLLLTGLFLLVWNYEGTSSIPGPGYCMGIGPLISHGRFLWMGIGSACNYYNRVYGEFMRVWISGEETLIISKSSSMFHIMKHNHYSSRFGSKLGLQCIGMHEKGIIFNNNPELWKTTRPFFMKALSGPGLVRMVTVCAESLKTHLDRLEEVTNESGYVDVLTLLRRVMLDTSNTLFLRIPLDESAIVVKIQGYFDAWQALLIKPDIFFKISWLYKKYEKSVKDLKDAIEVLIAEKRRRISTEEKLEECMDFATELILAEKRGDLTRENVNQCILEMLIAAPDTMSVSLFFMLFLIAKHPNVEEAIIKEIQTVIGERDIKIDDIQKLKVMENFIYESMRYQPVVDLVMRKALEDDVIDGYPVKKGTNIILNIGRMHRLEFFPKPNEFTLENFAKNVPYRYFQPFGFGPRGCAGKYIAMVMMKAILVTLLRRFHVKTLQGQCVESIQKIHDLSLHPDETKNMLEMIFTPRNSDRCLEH
Description: Inhibitory concentration against human placental aromatase by deutirium oxide release

- pIC50: < 4.30
Compound: COc1ccc2c(=O)c(-c3ccccc3)c(Sc3nccn3C)oc2c1
